The source of these data is patent publication US20120041009A1, “PYRIMIDINE COMPOUND AND ITS USE IN PEST CONTROL” (SUMITOMO CHEMICAL COMPANY, LIMITED, priority 2009, published 2012).

This experiment relates to Tetranychus urticae. The experiment can be described thus: Test Example 2: spray test against Tetranychus urticae on brush bean (Phaseolus vulgaris). The format is in vivo. As to conditions: comparative compound, same conditions as in Test Example 2 (500 ppm); day not given. Here is the method: The formulation of each of the present compounds (1), (3), (5), (7) to (11), (13), (14), (18), (20), (22), (24), (26), (27), (29), (30) and (33) to (35) obtained in Formulation Example 1 was diluted with water so as to adjust the concentration of the active ingredient to 500 ppm to prepare a test spray solution.
About sixty female imagines of Tetranychus urticae were released on brush bean (Phaseolus vulgaris) in the primary leaf stage, which had been potted in a polyethylene cup for 7 days after the seeding. One day after release of female imagines of Tetranychus urticae, 30 ml (per cup) of the test spray solution was sprayed over the brush bean seedling.
On the 8th and 13th day after spraying, the numbers of survival Tetranychus urticae on the leaf of the brush bean plant were examined, and the control rate was calculated by the following equation.
Control rate=100×{1−(number of survival Tetranychus urticae in treated section)/(number of survival Tetranychus urticae in non-treated section)}

As to `O=c1[nH]c(-c2cncnc2C(F)(F)F)no1` [comparative compound (C)], the control value result was “less than 30%”.
